Test results taken from article PMC11790914, “Chemogenomics for steroid hormone receptors (NR3)” (Communications Chemistry, 2025).

Tests used:
AURKA = target: T1, AURKA (Homo sapiens, UniProt O14965); test: Liability panel screening by DSF: AURKA; type: binding; details: DSF, 20 µM, n=2; for ΔTm at 20 µM: read-out: Mean ΔTM AURKA
T1 construct: made in house
T1 sequence (O14965 1-403): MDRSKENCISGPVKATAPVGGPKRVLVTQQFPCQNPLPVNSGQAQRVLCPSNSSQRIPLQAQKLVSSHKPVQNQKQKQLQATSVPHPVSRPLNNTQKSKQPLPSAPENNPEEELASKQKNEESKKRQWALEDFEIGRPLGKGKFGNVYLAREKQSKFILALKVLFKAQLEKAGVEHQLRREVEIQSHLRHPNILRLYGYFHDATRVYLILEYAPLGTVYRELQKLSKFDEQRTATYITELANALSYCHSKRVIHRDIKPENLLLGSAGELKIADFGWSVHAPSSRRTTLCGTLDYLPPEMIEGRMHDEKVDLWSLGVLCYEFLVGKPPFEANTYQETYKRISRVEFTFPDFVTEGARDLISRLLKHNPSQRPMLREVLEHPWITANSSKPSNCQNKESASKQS
Method in brief: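 ∆Tm in K was taken from Boltzmann-fitted unfolding inflection points, run in duplicate with a temperature ramp of 3 °C per minute up to 85 °C. Each recombinant protein (2 µM) was in HEPES 10 mM pH 7.5 and NaCl 500 mM, with SYPRO Orange dye at 1:1000.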

NR1H3 (LXRα) = target: T2, NR1H3 (LXRα) (Homo sapiens, UniProt Q13133); test: Gal4 hybrid reporter gene assay LXRα; type: cell-based; details: n=3
T2 construct: expressed in transfected cells; host or cells: HEK293T
T2 sequence (Q13133 209-447 limits assumed): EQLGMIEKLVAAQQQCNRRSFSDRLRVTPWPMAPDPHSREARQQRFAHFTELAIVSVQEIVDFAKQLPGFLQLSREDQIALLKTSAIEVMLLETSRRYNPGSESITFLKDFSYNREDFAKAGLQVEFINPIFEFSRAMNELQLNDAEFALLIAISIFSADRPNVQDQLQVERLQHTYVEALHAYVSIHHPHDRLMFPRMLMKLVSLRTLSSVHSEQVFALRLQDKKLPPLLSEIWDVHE
Method: (§1) Reference ligands are listed in the methods section.
(§2) HEK293T cells (ATCC, Manassas, Virgina, USA; #CRL-3216) were cultured to a maximal confluence of 70–80% in DMEM, high glucose, supplemented with 10% FCS, sodium pyruvate (1 mM), penicillin (100 U/mL), and streptomycin (100 μg/mL) at 37 °C and 5% CO2 (v/v), and seeded in clear 96-well plates (4 × 10^4 cells per well). After 20–24 h, medium was changed to Opti-MEM without supplements and the cells were transiently transfected using Lipofectamine™ LTX/Plus™ Reagents (Invitrogen, Carlsbad, California, USA; #15338100) according to the manufacturer’s protocol with pFR-Luc (reporter gene; Stratagene, Agilent Technologies, Santa Clara, California, USA; #219050), pRL-SV40 (control gene for normalization of transfection efficiency and cell growth; Promega, Fitchburg, Wisconsin, USA; #E2231) and one pFA-CMV-hNR-LBD clone coding for the hinge region and ligand binding domain (LBD) of the human NR of interest. Five hours after transfection, the cells were incubated with the NR3 CG compound candidates at the recommended concentrations by changing the medium to Opti-MEM supplemented with penicillin (100 µ/mL) and streptomycin (100 µg/mL) additionally containing 0.1% DMSO and the respective test compound or 0.1% DMSO alone as untreated control. Firefly (reporter) and renilla (control) luminescence were measured after 14–16 h incubation using the Dual-Glo® Luciferase Assay System (Promega, Fitchburg, Wisconsin, USA; #E2980) according to manufacturer’s protocol on a Tecan Spark® 10M multimode microplate reader (Tecan Group AG, Männedorf, Switzerland). To obtain relative light units (RLU) firefly luminescence was divided by renilla luminescence and multiplied by 1000. Fold activation was obtained by dividing the mean RLU of a test sample by the mean RLU of the DMSO (0.1%) control. Experiments were performed in singlets in at least three biologically independent repeats. […]

NR1I3 (CAR) = target: T3, NR1I3 (CAR) (Homo sapiens, UniProt Q14994); test: Gal4 hybrid reporter gene assay CAR; type: cell-based; details: n=3
T3 construct: expressed in transfected cells; host or cells: HEK293T
T3 sequence (Q14994 109-352 limits assumed): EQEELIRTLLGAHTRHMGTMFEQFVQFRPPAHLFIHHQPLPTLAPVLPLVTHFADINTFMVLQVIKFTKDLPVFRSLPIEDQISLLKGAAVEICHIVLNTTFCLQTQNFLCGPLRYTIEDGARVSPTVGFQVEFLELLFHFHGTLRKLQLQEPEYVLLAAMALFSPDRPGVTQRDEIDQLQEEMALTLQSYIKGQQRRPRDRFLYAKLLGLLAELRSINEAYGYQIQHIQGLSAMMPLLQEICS
Method: as §1, §2

Structure (SMILES)	ΔTm at 20 µM (AURKA)	other results
CC/C(=C(/c1ccc(/C=C/C(=O)O)cc1)c1ccc2[nH]ncc2c1)c1ccc(F)cc1Cl [ARN810]	1.69 °C	–
Cc1ccc2c(NC[C@](O)(CC(C)(C)c3cc(F)cc4c3OCC4)C(F)(F)F)cccc2n1 [Mapracorat]	-0.69 °C	Activity on NR targets outside NR3 family [mean log10(fold reporter gene activity)] NR1H3 (LXRα) (NR1H3 (LXRα); 1 µM, vs. DMSO ctrl): -0.38 log10(fold reporter gene activity)
C[C@@H]1Cc2c([nH]c3ccccc23)[C@@H](c2c(F)cc(/C=C/C(=O)O)cc2F)N1CC(C)(C)F [AZD9496]	-0.16 °C	–
CC#C[C@]1(O)CC[C@H]2[C@@H]3CCC4=CC(=O)CCC4=C3[C@@H](c3ccc(N(C)C)cc3)C[C@@]21C [Mifepristone]	-1.55 °C	–
CC/C(=C(\c1ccc(O)cc1)c1ccc(OCCN(C)C)cc1)c1ccccc1 [(Z)-4-Hydroxytamoxifen]	0.07 °C	Activity on NR targets outside NR3 family [mean log10(fold reporter gene activity)] NR1I3 (CAR) (NR1I3 (CAR); 3 µM, vs. DMSO ctrl): 1.13 log10(fold reporter gene activity)
COc1cc(/C=C(\C#N)C(=O)Nc2nnc(C(F)(F)F)s2)ccc1OCc1ccc(C(F)(F)F)cc1C(F)(F)F [XCT790]	-0.27 °C	–
COc1ccc(-c2coc3cc(O)cc(O)c3c2=O)cc1 [Biochanin A]	–	Activity on NR1H3 (LXRα) (NR1H3 (LXRα); 10 µM): -0.46 mean log10(fold reporter gene activity); Activity on NR1I3 (CAR) (NR1I3 (CAR); 10 µM): -0.24 mean log10(fold reporter gene activity); Mean ΔTM AURKA (AURKA): 1.95 K
C/C=C1\C(=O)C[C@H]2[C@@H]3CCC4=CC(=O)CC[C@]4(C)[C@H]3CC[C@]12C [Z-Guggulsterone]	–	Activity on NR1H3 (LXRα) (NR1H3 (LXRα); 3 µM): -0.71 mean log10(fold reporter gene activity); Activity on NR1I3 (CAR) (NR1I3 (CAR); 3 µM): -0.48 mean log10(fold reporter gene activity); Mean ΔTM AURKA (AURKA): -1.78 K
CCCC1O[C@@H]2C[C@H]3[C@@H]4CCC5=CC(=O)C=C[C@]5(C)[C@H]4[C@@H](O)C[C@]3(C)[C@]2(C(=O)CO)O1 (some centres unmarked) [Budesonide]	-0.16 °C	–
CC/C(=C(/CC)c1ccc(O)cc1)c1ccc(O)cc1 [Diethylstilbestrol]	-1.78 °C	–
CCN(CC)c1ccc(/C=N/NC(=O)c2ccc(O)cc2)cc1 [DY131]	-2.05 °C	–
